In patent publication US8748423B2, “Compositions and methods for the prevention and treatment of cancer” (Kinex Pharmaceuticals, LLC, priority 2010, dated 2014):
Values belong to the compound of their own block, whether it stands above or below them.

How the values were obtained:
[1] = test system: colon tumor cell lines KM12; assay: standard tumor growth inhibition assay, KM12; type: cell-based; settings: Homo sapiens, KM12, read-out: GI50 (KM12)
Method: (§1) These GI50's were determined using the standard tumor growth inhibition assays, similar to that described in detail for the HT29 cell line above, and the following cell lines: colon tumor cell lines KM12, lung cancer cell line H460 and lung cancer cell line A549 (all are NCI standard tumor cell lines).

[2] = test system: lung cancer cell line H460; assay: standard tumor growth inhibition assay, H460; type: cell-based; settings: Homo sapiens, NCI-H460, read-out: GI50 (H460)
Method: as §1

c-Src 3T3 cells = assay: BrdU cell growth inhibition assay, c-Src 3T3; type: cell-based, mouse
Method: (§2) The GI50s for several of the compounds of the invention were assayed as described herein.
The c-Src 3T3 is a mouse fibroblast NIH 3T3 normal cell line that has been transfected with a point-mutant of human c-Src wherein tyrosine 527 has been converted to a phenylalanine. This mutation results in “constitutively active” c-Src because phosphorylation on tyrosine 527 results in auto-inhibition of Src by having it fold back on its own SH2 domain. With a Phe there, this phosphorylation can't occur and therefore auto-inhibition can't occur. Thus, the always fully active mutant Src then converts the normal mouse fibroblasts into rapidly growing tumor cells. […]
In the BrdU Assay for cell growth inhibition, quantitation of cell proliferation was based on the measurement of BrdU incorporation during DNA synthesis. […]
The growth inhibition (GI) is determined from the formula GI=(T0−Tn×100/T0−CONn) where T0 is the BrdU growth of untreated cells at time “0”, Tn is the BrdU growth of treated cells at day “n” and CONn is the control BrdU growth of control cells at day “n”. […]
Seeded 96 well plates were allowed to attach overnight for 18-24 hours, either at 37° C. and 5% CO2 for HT-29 or at 37° C. and 10% CO2 for c-Src 3T3. Approx 18-24 hours after seeding, the initial growth of cells (T0) was determined for untreated cells using the BrdU assay. […]

[3] = body weight in GL261 glioma survival study; type: in vivo, C57BL/6 mice
Method: (§3) The studies were conducted in C57BL/6 mice. GL261 glioma cells (1×10^5 in 5 μl DMEM) were implanted intracranial coordinates: bregma, lateral 2.0 mm, anterior 1.2 mm, 3.0 mm depth dura. Treatment was initiated 3 days post implantation.
FIGS. 2A-F show the weight gain in each of the C57BL/6 mice in the different treatment groups. The average weight at endpoint for each of the treatment groups is shown below in Table 12. FIG. 3 is a graph showing the average weights over a 40-day period for each of the treatment groups.

U87 = assay: brain tumor cell line growth inhibition, U87; type: cell-based; settings: Homo sapiens, U-87 MG; U87, glioblastoma; astrocytoma
Method: (§4) These GI50s were determined using standard tumor growth inhibition assays.

SW1088 = assay: brain tumor cell line growth inhibition, SW1088; type: cell-based; settings: Homo sapiens; SW1088, astrocytoma
Method: as §4

GL261 = assay: brain tumor cell line growth inhibition, GL261; type: cell-based; settings: GL261, mouse glioblastoma
Method: as §4

Daoy = assay: brain tumor cell line growth inhibition, Daoy; type: cell-based; settings: Homo sapiens, desmoplastic cerebellar medulloblastoma
Method: as §4

LN-18 = assay: brain tumor cell line growth inhibition, LN-18; type: cell-based; settings: Homo sapiens; LN-18, glioblastoma; glioma
Method: as §4

SK-N-MC = assay: brain tumor cell line growth inhibition, SK-N-MC; type: cell-based; settings: Homo sapiens, neuroepithelioma
Method: as §4

SK-N-FI = assay: brain tumor cell line growth inhibition, SK-N-FI; type: cell-based; settings: Homo sapiens, neuroblastoma
Method: as §4

HT29 cell line = assay: BrdU cell growth inhibition assay, HT-29; type: cell-based; settings: Homo sapiens
Method: as §2
The HT29 cell line is a NCI standard human colon carcinoma cell line. […] HT29 cells were routinely cultured in McCoy's 5A medium supplemented with Fetal Bovine Serum (1.5% v/v) and L-glutamine (2 mM).
In the BrdU Assay for cell growth inhibition, quantitation of cell proliferation was based on the measurement of BrdU incorporation during DNA synthesis. The Cell Proliferation ELISA BrdU assay kit (colorimetric) was obtained from Roche Applied Science and performed as per vendor instructions.
The growth inhibition (GI) is determined from the formula GI=(T0−Tn×100/T0−CONn) where T0 is the BrdU growth of untreated cells at time “0”, Tn is the BrdU growth of treated cells at day “n” and CONn is the control BrdU growth of control cells at day “n”. The GI50 was extrapolated and the data plotted using XL-Fit 4.0 software.
For 96 well culture plate experiments, c-Src 3T3 medium was supplemented with 10 mM HEPES buffer. […]
Seeded 96 well plates were allowed to attach overnight for 18-24 hours, either at 37° C. and 5% CO2 for HT-29 or at 37° C. and 10% CO2 for c-Src 3T3. Approx 18-24 hours after seeding, the initial growth of cells (T0) was determined for untreated cells using the BrdU assay. […] Plates were assayed for BrdU and the data analyzed as above for GI50. […]

GL261 glioma = assay: intracranial GL261 glioma survival study; type: in vivo, C57BL/6 mice; settings: 5 mg/kg weekly oral
Method: as §3
The median survival range and the log-rank (Mantel-Cox) statistical test results comparing the survival distributions of the samples.

Compound: O=C(Cc1ccc(-c2ccccc2)cc1)NCc1cccc(F)c1 [Compound 2]
GI50 [1]: 0.41 µM
GI50 [2]: 0.89 µM

Compound: O=C(Cc1ccc(-c2ccc(OCCN3CCOCC3)cc2)cn1)NCc1cccc(F)c1 [Compound 38]
GI50 (c-Src 3T3) (c-Src 3T3 cells): inactive

IC50 (U87): 0.0331 µM
IC50 (SW1088): 0.0761 µM
IC50 (GL261): 0.0137 µM
IC50 (Daoy): 0.0136 µM
IC50 (LN-18): 0.0145 µM
IC50 (SK-N-MC): 0.0058 µM
IC50 (SK-N-FI): 0.0017 µM
Compound: O=C(Cc1ccc(-c2ccc(OCCN3CCOCC3)cc2)cn1)NCc1ccccc1 [Compound 134, 2-(5-(4-(2-morpholinoethoxy)phenyl)pyridin-2-yl)-N-benzylacetamide]
Average weight at endpoint ([3]; 5 mg/kg (Compound 134, bid)): 14.3 g

GI50 (HT29 cell line): 0.026 µM
Compound: CN1CCN(CCOc2ccc(-c3ccc(CC(=O)NCc4cccc(F)c4)nc3)c(F)c2)CC1 [Compound 137]

Compound: Cn1nnc2c(C(N)=O)ncn2c1=O [Temodar ®, reference compound]
Average weight at endpoint ([3]; 5 mg/kg (Temodar, once weekly)): 13.3 g
Median survival (GL261 glioma): 29
survival Range (GL261 glioma): 26-29
